From US10464926B2, “Heterobicyclic compounds and their use for the treatment of tuberculosis” (OTSUKA PHARMACEUTICAL CO., LTD., priority 2014, dated 2019)

SMILES	melting point
Cc1cc(N2CCC(O)(COc3ccc(Cl)c4c3CCC(=O)N4)CC2)c(F)cc1Cl	212.2 to 213.1 °C
O=C1CCc2c(OC[C@@]3(O)CCN(c4c(F)cc(Cl)cc4F)C[C@@H]3O)cc(F)c(F)c2N1 (relative stereo)	215 to 217 °C
CCc1cc(N2CCC(O)(COc3ccc(F)c4c3CCC(=O)N4)CC2)c(F)cc1Cl	201.3 to 202.4 °C
O=C1CCc2ccc(OCC3(O)CCN(c4ccc(Cl)cc4F)CC3)cc2N1	207.8 to 208.7 °C
CCCc1ccc(N2CCC(O)(COc3ccc(F)c4c3CCC(=O)N4)CC2)c(Cl)c1	197.5 to 197.6 °C
O=C1CCc2c(OCC3(O)CCN(c4ncc(Cl)cc4F)CC3)ccc(Cl)c2N1	174.4 to 175.8 °C
O=C1CCc2c(OCC3(O)CCN(c4cc(F)c(Cl)cc4F)CC3)ccc(Cl)c2N1	190.3 to 190.4 °C
CO[C@H]1CN(c2ncc(Cl)cc2Cl)CC[C@@]1(O)COc1ccc(F)c2c1CCC(=O)N2 (relative stereo)	186 to 187 °C
CCCc1cc(N2CCC(O)(COc3ccc(F)c4c3CCC(=O)N4)CC2)c(F)cc1F	184.7 to 184.8 °C
CCOC(=O)c1cc(N2CCC(O)(COc3ccc(F)c4c3CCC(=O)N4)CC2)ccc1Cl	148 °C
O=C1CCc2c(OCC3(O)CCN(c4ccc(OCc5ccc(C(F)(F)F)cn5)cc4F)CC3)ccc(F)c2N1	194.9 to 195.1 °C
O=C1CCc2c(OCC3(O)CCN(c4ccc(F)cc4F)CC3)ccc(F)c2N1	201.7 to 201.9 °C
COCCOCCOc1ccc(N2CCC(O)(COc3ccc(F)c4c3CCC(=O)N4)CC2)c(F)c1	128.7 to 130.7 °C
O=C1CCc2c(OC[C@@]3(O)CCN(c4ncc(Cl)cc4Cl)C[C@@H]3O)ccc(F)c2N1 (relative stereo)	202.6 to 204.8 °C
O=C1CCc2c(OCC3(O)CCN(c4cc5c(cc4F)OC(F)(F)O5)CC3)cc(F)c(Cl)c2N1	249.4 to 250.5 °C (dec.)
C[C@]1(O)CN(c2ncc(Cl)cc2Cl)CC[C@]1(O)COc1ccc(F)c2c1CCC(=O)N2 (relative stereo)	182.6 to 187.5 °C
CCOc1cnc(N2CCC(O)(COc3ccc(F)c4c3CCC(=O)N4)CC2)c(Cl)c1	187.9 to 190.2 °C
CO[C@H]1CN(c2ncc(Cl)cc2Cl)CC[C@]1(O)COc1ccc(F)c2c1CCC(=O)N2 (relative stereo)	162.8 to 164 °C
O=C1CCc2c(cccc2OCC2(O)CCN(c3ccc(Cl)cc3F)CC2)N1	231.6 to 232.9 °C
CC(C)c1cc(N2CCC(O)(COc3ccc(F)c4c3CCC(=O)N4)CC2)c(F)cc1Cl	225.3 to 225.7 °C
O=C1CCc2c(OCC3(O)CCN(c4ncc(Br)cc4F)CC3)ccc(F)c2N1	197.4 to 203.9 °C
O=C1CCc2c(OCC3(O)CCN(c4ccc(Br)cc4F)CC3)ccc(F)c2N1	204.8 to 205 °C

SMILES	melting point
O=C1CCc2c(OCC3(O)CCN(c4cc5c(cc4F)OC(F)(F)O5)CC3)cc(F)c(F)c2N1	258.9 to 259 °C (dec.)
O=C1CCc2c(OCC3(O)CCN(c4cc([N+](=O)[O-])ccc4Cl)CC3)ccc(F)c2N1	204.8 to 205.4 °C
CCOc1cc(F)c(N2CCC(O)(COc3ccc(F)c4c3CCC(=O)N4)CC2)cc1OC	190.8 to 191.1 °C
O=c1ccc2c(OC[C@]3(O)CCN(c4c(F)cc(Cl)cc4F)C[C@H]3O)ccc(Cl)c2[nH]1	228.8 to 229.5 °C
O=C1CCc2c(NCC3(O)CCN(c4ccc(F)cc4Cl)CC3)ccc(F)c2N1	214 to 215 °C
O=C1CCc2c(OCC3(O)CCN(c4cc5c(cc4F)OC(F)(F)O5)CC3)ccc(Cl)c2N1	213.4 to 213.5 °C
CCOc1c(F)c(F)c(N2CCC(O)(COc3ccc(F)c4c3CCC(=O)N4)CC2)c(F)c1F	208.9 to 209.3 °C
CC(C)c1ccc(N2CCC(O)(COc3ccc(F)c4c3CCC(=O)N4)CC2)c(Cl)c1	176.5 to 176.9 °C
O=C1CCc2c(OCC3(O)CCN(c4cccc(Cl)c4Cl)CC3)ccc(F)c2N1	228.7 °C
O=C1CCc2c(OCC3(O)CCN(c4cc(OCc5ccc(Cl)cc5)c(Cl)cc4F)CC3)ccc(F)c2N1	205.1 to 205.7 °C
CCc1ccc(N2CCC(O)(COc3ccc(F)c4c3CCC(=O)N4)CC2)c(Cl)c1	167.8 to 168 °C
CCOc1cnc(N2CCC(O)(COc3ccc(Cl)c4c3CCC(=O)N4)CC2)c(Cl)c1	169 to 170.4 °C
CN(C)CCOc1cc(N2CCC(O)(COc3ccc(F)c4c3CCC(=O)N4)CC2)c(F)cc1Cl	162.9 to 164.1 °C
O=C1CCc2c(OCC3(O)CCN(c4ncc(C(F)(F)F)cc4Cl)CC3)ccc(Cl)c2N1	193 to 194.7 °C
CCCc1cc(N2CCC(O)(COc3ccc(F)c4c3CCC(=O)N4)CC2)c(F)cc1Cl	196.5 to 196.6 °C
O=C1CCc2c(OCC3(O)CCN(c4ncc(Br)cc4F)CC3)ccc(Cl)c2N1	231.2 to 233.5 °C
CCSc1cc(F)c(N2CCC(O)(COc3ccc(Cl)c4c3CCC(=O)N4)CC2)c(F)c1	157.4 to 157.5 °C
O=C1CCc2c(OC[C@H]3CCN(c4cc(F)c(Cl)cc4F)C[C@@H]3O)ccc(F)c2N1 (relative stereo)	168.9 to 172.7 °C
O=C1CCc2c(OCC3(O)CCN(c4c(Cl)cccc4Cl)CC3)ccc(F)c2N1	203.6 to 203.8 °C
Cc1cc(N2CCC(O)(COc3ccc(F)c4c3CCC(=O)N4)CC2)ccc1Cl	216.1 to 216.3 °C
O=C1CCc2c(OCC3(C(=O)O)CCN(c4ncc(Cl)cc4Cl)CC3)ccc(F)c2N1	276 to 277 °C

The remaining lines, values ahead:

melting point	SMILES
216.1 °C	O=C1CCc2c(OCC3(O)CCN(c4ccc(C(F)(F)F)cc4)CC3)ccc(F)c2N1
215.7 to 216 °C	O=C1CCc2c(OCC3(O)CCN(c4ccc5occc5c4)CC3)ccc(F)c2N1
198 to 199 °C	O=C1CCc2c(OC[C@]3(O)CCN(c4c(F)cc(F)cc4F)C[C@H]3O)ccc(F)c2N1 (relative stereo) [Example 305]
190.4 to 190.5 °C	O=C1CCc2c(OCC3(O)CCN(c4cc(OC(F)(F)F)ccc4Cl)CC3)ccc(F)c2N1
194.8 to 195 °C	CCCOc1cc(F)c(N2CC[C@@](O)(COc3ccc(F)c4c3CCC(=O)N4)[C@H](O)C2)c(F)c1
172.6 to 172.7 °C	O=C1CCc2c(OCC3(O)CCN(c4c(F)cc(OC(F)F)cc4F)CC3)ccc(F)c2N1
175.2 to 176.1 °C	O=C1CCc2c(OC[C@]3(O)CCN(c4ccc(F)cc4F)C[C@H]3O)ccc(F)c2N1
198.8 to 199.1 °C	CCOc1ccc(N2CCC(O)(COc3ccc(F)c4c3CCC(=O)N4)CC2)cc1
218 to 220 °C	O=C1CCc2c(OC[C@]3(O)CCN(c4ccc(F)cc4Cl)C[C@H]3F)ccc(F)c2N1 (relative stereo)
197 to 198 °C	O=C1CCc2c(OC[C@]3(O)CCN(c4c(F)cc(Br)cc4F)C[C@H]3O)ccc(F)c2N1 [Example 302]
198.6 to 198.8 °C	O=C1CCc2c(OC[C@]3(O)CCN(c4ccc(Cl)cc4F)C[C@@H]3O)ccc(F)c2N1
192.2 to 193.2 °C	O=C1CCc2c(OC[C@]3(O)CCN(c4ccc(F)cc4Cl)C[C@H]3O)cc(F)c(F)c2N1
163 to 165 °C	CC(=O)O[C@@H]1CN(c2c(F)cc(Cl)cc2F)CC[C@@]1(O)COc1ccc(F)c2c1CCC(=O)N2
181.8 to 181.9 °C	O=C1CCc2c(OCC3(O)CCN(c4ccc(OC(F)(F)F)cc4Cl)CC3)ccc(F)c2N1
156 to 157 °C	CCNC(=O)O[C@@H]1CN(c2ccc(Cl)cc2F)CC[C@@]1(O)COc1ccc(F)c2c1CCC(=O)N2
181 °C	Cc1ccc(N2CCC(O)(COc3ccc(F)c4c3CCC(=O)N4)CC2)cc1
184 to 185 °C	O=C1CCc2c(OC[C@@]3(O)CCN(c4cc(F)c(Cl)cc4F)C[C@H]3O)ccc(F)c2N1 (relative stereo)

melting point	SMILES
177.7 to 178 °C	O=C1CCc2c(OC[C@]3(O)CCN(c4ccccc4F)C[C@H]3O)ccc(F)c2N1
194 °C	O=C1CCc2c(OC[C@]3(O)CCN(c4ccc(Br)cc4F)C[C@H]3O)cc(F)c(Cl)c2N1 (relative stereo)
200.7 °C	O=C1CCc2c(OCC3(O)CCN(c4ccc(OC(F)(F)F)cc4)CC3)ccc(F)c2N1
159.4 to 159.5 °C	O=C1CCc2c(OCC3(O)CCN(c4cccc(C(F)(F)F)c4)CC3)ccc(F)c2N1
163.1 to 164.6 °C	O=C1CCc2c(OC[C@]3(O)CCN(c4ccc(OC(F)F)cc4)C[C@H]3O)ccc(F)c2N1
209.5 to 210.2 °C	O=C1CCc2c(OCC3(O)CCN(c4ccc5sccc5c4)CC3)ccc(F)c2N1
194.9 to 195 °C	CC(C)c1ccc(N2CCC(O)(COc3ccc(F)c4c3CCC(=O)N4)CC2)cc1
197.4 to 197.5 °C	O=C1CCc2c(OC[C@]3(O)CCN(c4cc5c(cc4F)OC(F)(F)O5)C[C@H]3O)ccc(F)c2N1 (relative stereo)
182.4 to 182.5 °C	O=C1CCc2c(OC[C@]3(O)CCN(c4ccc(F)cc4)C[C@H]3O)ccc(F)c2N1 (relative stereo) [Example 336]
216 °C	N#Cc1ccc(N2CCC(O)(COc3ccc(F)c4c3CCC(=O)N4)CC2)cc1
191 to 193 °C	O=C1CCc2c(OC[C@]3(O)CCN(c4c(F)cc(Br)cc4F)C[C@H]3O)ccc(F)c2N1 (relative stereo) [Example 301]
279 to 281 °C	O=C1CCc2c(OC[C@]3(O)CCN(c4nc5ccccc5[nH]4)C[C@H]3O)ccc(F)c2N1
195.5 to 195.6 °C	O=C1CCc2c(OC[C@]3(O)CCN(c4ccc(Cl)cc4F)C[C@H]3O)ccc(Cl)c2N1 (relative stereo) [Example 334]
190 to 192 °C	O=C1CCc2c(OC[C@]3(O)CCN(c4ccc(Br)cc4F)C[C@H]3O)ccc(Cl)c2N1 (relative stereo) [Example 269]
194 to 195 °C	O=C1CCc2c(OC[C@]3(O)CCN(c4ccc(Cl)cc4F)C[C@H]3F)ccc(F)c2N1 (relative stereo)
233 °C	O=C1CCc2c(cccc2OC[C@]2(O)CCN(c3c(F)cc(Cl)cc3F)C[C@H]2O)N1 (relative stereo) [Example 349]
176 to 178 °C	CCOc1cc(F)c(N2CC[C@@](O)(COc3ccc(F)c4c3CCC(=O)N4)[C@H](O)C2)c(F)c1 [Example 317]
